Measurements published in patent US20110306035A1, “Methods and Compositions for Detection of a Pathogen, Disease, Medical Condition, or Biomarker Thereof” (priority 2008, published 2011).
Values joined by “and” are separate entries in the source; they are usually repeats but may differ in a detail not shown here. Equal values may be shown once.

What was measured:
3C protease (EV assay) = test: Assay optimization - solvent (EV assay, Camb 2); format: biochemical, Enterovirus; conditions: for effect on reaction rate: all concentrations tested
Experimental: (§1) Various solvents were tested in order to optimize substrate solubility and stability. […] All the solvents tested were prepared at 0-10% concentrations in 2× reaction buffer and the final concentrations tested were 0-5%. […] Camb 2 was added to the final 2× buffer. For 1,2-Propanediol and 1,3-Propanediol, Camb 2 was first dissolved in the solvent at the appropriate concentration. The solvent+camb2 was then added to 3× reaction buffer to make a final 2× reaction buffer+2 uM camb2. All the experiments were performed in the TECAN Polarstar n=1 in triplicates.

[1] = biological target: T1, Recombinant protease from enterovirus strain Echo (Echovirus 30, UniProt Q9WN78); test: Enterovirus assay optimization with recombinant Echo protease (plates, tubes, buffer, Na2SO4, substrate concentration, diluent); format: biochemical; conditions: for Positive control, Average / Positive control: substrate stock diluted 1:8 in this diluent, 0.25 uM final, analysis 5-10 min; for Positive control: single repetition
T1 construct: Phosphoramidon was tested using the Echovirus 3C recombinant
T1 sequence (Q9WN78 1550-1732): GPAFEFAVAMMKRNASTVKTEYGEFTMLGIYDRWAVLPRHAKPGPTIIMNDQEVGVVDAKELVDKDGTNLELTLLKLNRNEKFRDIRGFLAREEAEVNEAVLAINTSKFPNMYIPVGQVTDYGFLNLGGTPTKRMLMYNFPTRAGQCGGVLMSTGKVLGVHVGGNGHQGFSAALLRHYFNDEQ
Experimental: • Inhibitor Cocktail: Inhibitors cocktail I10 • Enzyme dilution buffer: −25 mM HEPES pH 7.5, 150 mM NaCl, 1 mM EDTA, 10% Glycerol, 0.5 mg/ml BSA, 1M Sucrose, 0.1% Sodium azid. • 2× reaction buffer, Buffer B: 50 mM HEPES, 10 mM EDTA, 10 mM EGTA, 1.2M Na2SO4, sodium azide 0.1%, pH 8.5 • Artificial CSF: NaCl 125 mM, KCl 2.5 mM, MgCl 1 mM, NaH2PO4 1.25 mM, CaCl2 2 mM, Glucose 2.5 mM, NaHCO3 25 mM, 0.1% Sodium azide, HEPES 25 mM, pH 7.45. • Enzyme: Recombinant protease from enterovirus strain “Echo” [dilution 1:18 • Substrate: Camb-2.3, 1 mM, Camb-2.4, 2 mM. (Different batches for the same Camb2 sequence) • HEPES Buffer: HEPES 25 mM • NB tubes: Sigma Cat #Z666505 • Amber tubes: USA scientific Inc. Cat. 1620-2707 • 96 well Plate: Dark bottom NB plate—Greiner Cat. 655900
• 1. Add artiCSF±HEPES buffer to plate • 2. Prepare 400 ul HEPES buffer±RB+substrate (camb2.3 and 2.4) in both amber and NB tubes. • 3. Add enzyme to wells • 4. Add HEPES buffer±RB+substrate to wells with multichannel pipette.
The reaction buffer is a part of the enterovirus test kit of the invention. The camb-2 substrate is dissolved in the reaction buffer. The reaction buffer contains different salts to allow the tested enzyme to work at the optimal conditions. The current reaction buffer composition is: HEPES pH 7.5, 300 mM NaCl, 10 mM EDTA, 10 mM EGTA, 10% Glycerol, 1.8M Na2SO4, 0.1% Sodium azide. The amount of salt in the reaction buffer is high and allows optimal enzymatic activity. However, under these conditions, substrate solubility is affected. Thus, the reaction buffer was improved to increase substrate solubility without reducing enzymatic activity of the tested 3C protease.
300 mM NaCl and 10% glycerol was removed from the reaction buffer and several reduced concentrations of Na2SO4 (starting at 0.9M) were tested in order to determine the minimal salt requirements of the assay (Tables 31-34). Experiments were repeated at least three times by two different scientists.
CSF sample was incubated with 50 nM Echo protease and 2× reaction buffer with 0.6M Na2SO4. Also included were 3 blanks and 9 positive control repetitions.
The effect of reduction in substrate (camb2) concentration and increase in measurement time was tested. The experiment was performed at a final substrate (camb2.5) concentrations of 1, 0.5, 0.25 and 0.125 μM and data analysis was made at different time intervals: 1.5-5, 5-12 and 5-22 min (FIGS. 27A-C).
Sodium sulfate generally has an ambivalent effect: it increase 3C protease activity and reduces substrate solubility. Once it was decided that the substrate concentration would be reduced to 0.25 uM and results analyzed at between 5-10 min, the Na2SO4 concentration was optimized. […] 0.6-0.4M Na2SO4 was tested under the new assay conditions.
• Data analysis was performed between 5-10 min. • The assay activity was measured in triplicates by three scientists. The results in Table 51 are the average of the three triplicates.
To examine the effect of substrate dilution in DMSO vs. DDW under the new assay conditions, substrate stock (1 mM in DMSO) was diluted 1:8 in DMSO or in DDW to yield the working stock. The working stocks were further diluted 1:250 in 2× RB for a concentration of 0.5 uM (0.25 uM final in the well).
The assay activity was measured in triplicates by three scientists. The results in Table 52 are the average of the three triplicates.

COX enzyme = biological target: T2, COX enzyme (Coxsackievirus B5, UniProt Q03053); test: Assay optimization - solvent with COX enzyme (1:10); format: biochemical, Enterovirus (COX)
T2 construct: 3D structure modeling of enterovirus 3C protease with it substrate Camb2
T2 sequence (Q03053 1541-1723): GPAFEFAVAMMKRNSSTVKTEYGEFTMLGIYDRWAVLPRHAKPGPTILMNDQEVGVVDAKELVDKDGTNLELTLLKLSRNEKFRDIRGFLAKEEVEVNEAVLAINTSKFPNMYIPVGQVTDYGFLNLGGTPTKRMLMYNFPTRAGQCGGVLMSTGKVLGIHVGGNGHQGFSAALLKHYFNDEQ
Experimental: as §1, with “All the experiments were performed in the TECAN Polarstar n=1 in triplicates.” left out
1,3-Propanediol with COX enzyme (1:10):

[2] = Acetonitrile 0.5% final, Table 43 Experiment 2
[3] = Acetonitrile 1% final, Table 42 Experiment 1
[4] = Acetonitrile 1% final, Table 43 Experiment 2
[5] = Acetonitrile 2.5% final, Table 42 Experiment 1
[6] = Acetonitrile 4% final, Table 42 Experiment 1
[7] = Acetonitrile 5% final, Table 42 Experiment 1
[8] = Isopropanol 1% final, Table 39 Experiment 1
[9] = Isopropanol 1% final, Table 40 Experiment 2
[10] = Isopropanol 2.5% final, Table 39 Experiment 1
[11] = Isopropanol 2.5% final, Table 40 Experiment 2
[12] = Isopropanol 4% final, Table 39 Experiment 1
[13] = Isopropanol 4% final, Table 40 Experiment 2
[14] = Isopropanol 5% final, Table 39 Experiment 1
[15] = Isopropanol 5% final, Table 40 Experiment 2
[16] = 1,3-propanediol 1% final, Table 47 GalaxyFLUOstar, second sub-table
[17] = 1,3-propanediol 2.5% final, Table 47 GalaxyFLUOstar, second sub-table
[18] = 1,3-propanediol 2.5% final, Table 48 TECAN with nonbiding plate
[19] = 1,3-propanediol 4% final, Table 47 GalaxyFLUOstar, second sub-table
[20] = 1,3-propanediol 4% final, Table 48 TECAN with nonbiding plate
[21] = 1,3-propanediol 5% final, Table 47 GalaxyFLUOstar, first sub-table
[22] = 1,3-propanediol 5% final, Table 47 GalaxyFLUOstar, second sub-table
[23] = 1,3-propanediol 5% final, Table 48 TECAN with nonbiding plate
[24] = 1,2-propanediol 1% final, Table 50 Galaxy FLUOstar with nonbinding microplate
[25] = 1,2-propanediol 2.5% final, Table 49 TECAN with nonbinding microplate
[26] = 1,2-propanediol 2.5% final, Table 50 Galaxy FLUOstar with nonbinding microplate
[27] = 1,2-propanediol 4% final, Table 49 TECAN with nonbinding microplate
[28] = 1,2-propanediol 4% final, Table 50 Galaxy FLUOstar with nonbinding microplate
[29] = 1,2-propanediol 5% final, Table 49 TECAN with nonbinding microplate
[30] = 1,2-propanediol 5% final, Table 50 Galaxy FLUOstar with nonbinding microplate

In the case of `CC#N` [Acetonitrile], the “% Loss” value (3C protease (EV assay); [2]) is reported as 7%, the “Reaction rate Average P.C” value (3C protease (EV assay); [2]) is reported as 1257.5 RFU/min and the “% Loss” value (3C protease (EV assay); [3]) is reported as 43%. The “Reaction rate Average P.C” value (3C protease (EV assay); [3]) was 1106.6 RFU/min, the “% Loss” value (3C protease (EV assay); [4]) was 25% and the “Reaction rate Average P.C” value (3C protease (EV assay); [4]) was 1002.48 RFU/min. For the same compound, the “% Loss” value (3C protease (EV assay); [5]) was 57%, the “Reaction rate Average P.C” value (3C protease (EV assay); [5]) was 846.73 RFU/min and the “% Loss” value (3C protease (EV assay); [6]) was 65%. For the same compound, the “Reaction rate Average P.C” value (3C protease (EV assay); [6]) was 706.1 RFU/min, the “% Loss” value (3C protease (EV assay); [7]) was 84% and the “Reaction rate Average P.C” value (3C protease (EV assay); [7]) was 308.48 RFU/min. For the same compound, the “effect on reaction rate” value (3C protease (EV assay)) was “loss in reaction rate”.

With `CC(C)O` [Isopropanol] the “salt precipitation in reaction buffer” value (3C protease (EV assay); 4 and 5% final) was “salt precipitation formed”, the “% Loss” value (3C protease (EV assay); [8]) was 45% and the “Reaction rate Average P.C” value (3C protease (EV assay); [8]) was 641.57 RFU/min. For the same compound, the “% Loss” value (3C protease (EV assay); [9]) was 35%, the “Reaction rate Average P.C” value (3C protease (EV assay); [9]) was 1047.42 RFU/min and the “% Loss” value (3C protease (EV assay); [10]) was 3%. For the same compound, the “Reaction rate Average P.C” value (3C protease (EV assay); [10]) was 1143.93 RFU/min, the “% Loss” value (3C protease (EV assay); [11]) was 50% and the “Reaction rate Average P.C” value (3C protease (EV assay); [11]) was 806 RFU/min. For the same compound, the “% Loss” value (3C protease (EV assay); [12]) was 100%, the “Reaction rate Average P.C” value (3C protease (EV assay); [12]) was −2.7 RFU/min and the “% Loss” value (3C protease (EV assay); [13]) was 42%. The “Reaction rate Average P.C” value (3C protease (EV assay); [13]) was 676.0 RFU/min, the “% Loss” value (3C protease (EV assay); [14]) was 100% and the “Reaction rate Average P.C” value (3C protease (EV assay); [14]) was −4.19 RFU/min. For the same compound, the “% Loss” value (3C protease (EV assay); [15]) was 75%, the “Reaction rate Average P.C” value (3C protease (EV assay); [15]) was 394.82 RFU/min and the “effect on reaction rate” value (3C protease (EV assay)) was “loss in reaction rate”.

For `C[S+](C)[O-]` [DMSO], the “Positive control, Average” value [1] was 1005 RFU/min, the Positive control [1] was 1023 ± 36 RFU/min and 987 ± 126 RFU/min and the “Reaction rate Average P.C” value (3C protease (EV assay); DMSO 1% final, Table 41) was 1270 RFU/min. The “% Loss” value (3C protease (EV assay); DMSO 2.5% final, Table 41) was 7%, the “Reaction rate Average P.C” value (3C protease (EV assay); DMSO 2.5% final, Table 41) was 1139.26 RFU/min and the “Reaction rate Average P.C” value (3C protease (EV assay); DMSO 4% final, Table 41) was 1288 RFU/min. For the same compound, the “effect on reaction rate” value (3C protease (EV assay)) was “no loss in reaction rate”.

In the case of `O` [DDW], the “reaction rate lower compared to DMSO” value ([1]; substrate diluted with DDW) is reported as 25%, the “Positive control, Average” value [1] is reported as 789.5 RFU/min and the Positive control [1] is reported as 747 ± 68 RFU/min and 832 ± 64 RFU/min.

`OCCCO` [1,3-propanediol, 1,3-Propanediol] was tested, and the “Reaction rate Average P.C” value (COX enzyme; 1,3-propanediol 1% final, Table 47 GalaxyFLUOstar, first sub-table) was 3948.19 RFU/min, the “% Loss” value (COX enzyme; [16]) was 20% and the “Reaction rate Average P.C” value (COX enzyme; [16]) was 4125.89 RFU/min. For the same compound, the “Reaction rate Average P.C” value (COX enzyme; 1,3-propanediol 1% final, Table 48 TECAN with nonbiding plate) was 7620.53 RFU/min, the “% Loss” value (COX enzyme; [17]) was 11% and the “Reaction rate Average P.C” value (COX enzyme; [17]) was 4491.13 RFU/min. The “% Loss” value (COX enzyme; [18]) was 36%, the “Reaction rate Average P.C” value (COX enzyme; [18]) was 4681.05 RFU/min and the “% Loss” value (COX enzyme; [19]) was 42%. The “Reaction rate Average P.C” value (COX enzyme; [19]) was 2956.26 RFU/min, the “% Loss” value (COX enzyme; [20]) was 2% and the “Reaction rate Average P.C” value (COX enzyme; [20]) was 7238.7 RFU/min. The “% Loss” value (COX enzyme; [21]) was 10%, the “Reaction rate Average P.C” value (COX enzyme; [21]) was 3072.45 RFU/min and the “% Loss” value (COX enzyme; [22]) was 47%. The “Reaction rate Average P.C” value (COX enzyme; [22]) was 2389.47 RFU/min, the “% Loss” value (COX enzyme; [23]) was 20% and the “Reaction rate Average P.C” value (COX enzyme; [23]) was 5929.86 RFU/min.

With `CC(O)CO` (stereo not drawn) [1,2-propanediol, 1,2-Propanediol] the “Reaction rate Average P.C” value (COX enzyme; 1,2-propanediol 1% final, Table 49 TECAN with nonbinding microplate) was 8588.13 RFU/min, the “% Loss” value (COX enzyme; [24]) was 9% and the “Reaction rate Average P.C” value (COX enzyme; [24]) was 5689.6 RFU/min. For the same compound, the “% Loss” value (COX enzyme; [25]) was 20%, the “Reaction rate Average P.C” value (COX enzyme; [25]) was 6521.1 RFU/min and the “% Loss” value (COX enzyme; [26]) was 22%. The “Reaction rate Average P.C” value (COX enzyme; [26]) was 4838.97 RFU/min, the “% Loss” value (COX enzyme; [27]) was 30% and the “Reaction rate Average P.C” value (COX enzyme; [27]) was 5013.13 RFU/min. For the same compound, the “% Loss” value (COX enzyme; [28]) was 30%, the “Reaction rate Average P.C” value (COX enzyme; [28]) was 4291.04 RFU/min and the “% Loss” value (COX enzyme; [29]) was 44%. For the same compound, the “Reaction rate Average P.C” value (COX enzyme; [29]) was 4509 RFU/min, the “% Loss” value (COX enzyme; [30]) was 47% and the “Reaction rate Average P.C” value (COX enzyme; [30]) was 3278.19 RFU/min. For the same compound, the “effect on enzymatic activity” value (COX enzyme; all concentrations tested except 1%) was “inhibited enzymatic activity”.
